Reference: US12679807B2 (MERCK SHARP & DOHME LLC, priority 2020, dated 2026)

Molecular target: T1, GCS enzyme contained within Golgi preparations isolated from human A375 malignant melanoma skin cells (Homo sapiens, UniProt Q16739)
T1 construct: endogenous levels of GCS enzyme contained within Golgi preparations isolated from human A375 malignant melanoma skin cells; endogenous in cells; host or cells: A375 human malignant melanoma cells (crude Golgi preparation)
T1 sequence (Q16739 1-394): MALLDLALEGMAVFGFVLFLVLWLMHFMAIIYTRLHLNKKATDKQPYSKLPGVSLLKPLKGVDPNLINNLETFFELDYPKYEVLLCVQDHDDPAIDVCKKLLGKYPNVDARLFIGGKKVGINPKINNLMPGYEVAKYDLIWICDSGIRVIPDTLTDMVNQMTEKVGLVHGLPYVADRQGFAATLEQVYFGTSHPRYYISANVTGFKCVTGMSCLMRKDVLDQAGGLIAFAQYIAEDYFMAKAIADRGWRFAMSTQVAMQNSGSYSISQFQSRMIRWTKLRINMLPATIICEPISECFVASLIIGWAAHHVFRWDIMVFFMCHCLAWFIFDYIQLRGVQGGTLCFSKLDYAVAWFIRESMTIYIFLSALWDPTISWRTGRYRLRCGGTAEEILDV
Test: UDP-Glo glucosylceramide synthase biochemical assay
Conditions: crude Golgi preparation from A375 cells; C6 ceramide and UDP-glucose substrates; 20 h incubation at room temperature; UDP detected by luminescence
In short: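 Endogenous enzyme in A375 Golgi preparations (1.5 μg total protein) was preincubated 30 min with compound, then reacted 20 h at room temperature with UDP-glucose and ceramide.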

| Compound | EC50 [nM] |
| --- | --- |
| Cc1nnc(-c2ccc(-c3cccc4c3C(=O)N([C@@H](CO)C3CC3)C4)cc2)o1 [Compound 50, (R)-2-(1-cyclopropyl-2-hydroxyethyl)-7-(4-(5-methyl-1,3,4-oxadiazol-2-yl)phenyl)isoindolin-1-one] | 630 |
| COC(C)(C)[C@@H](C1CC1)N1Cc2cccc(-c3ccc(-c4nnc(C)o4)cc3)c2C1=O [Compound 57, (R)-2-(1-cyclopropyl-2-methoxy-2-methylpropyl)-7-(4-(5-methyl-1,3,4-oxadiazol-2-yl)phenyl)isoindolin-1-one] | 260 |
| Cc1nnc(-c2ccc(-c3ccc(O)c4c3C(=O)N([C@H](C3CC3)C(C)(C)O)C4)cc2)o1 [Compound 58, (R)-2-(1-Cyclopropyl-2-hydroxy-2-methylpropyl)-4-hydroxy-7-(4-(5-methyl-1,3,4-oxadiazol-2-yl)phenyl)isoindolin-1-one] | 28 |
| Cc1cnc(-c2ccc(-c3cccc4c3C(=O)N([C@H](C3CC3)C(C)(C)O)C4)cc2)o1 [Compound 64, (R)-2-(1-Cyclopropyl-2-hydroxy-2-methylpropyl)-7-(4-(5-methyloxazol-2-yl)phenyl)isoindolin-1-one] | 180 |
| Cc1nnc(-c2ccc(-c3cccc4c3C(=O)N([C@H](C3CC3)C(C)(C)O)C4)cn2)o1 [Compound 65, (R)-2-(1-cyclopropyl-2-hydroxy-2-methylpropyl)-7-(6-(5-methyl-1,3,4-oxadiazol-2-yl)pyridin-3-yl)isoindolin-1-one] | 150 |
| Cc1nnc(-c2ncc(-c3cccc4c3C(=O)N([C@H](C3CC3)C(C)(C)O)C4)cc2F)o1 [Compound 66, (R)-2-(1-cyclopropyl-2-hydroxy-2-methylpropyl)-7-(5-fluoro-6-(5-methyl-1,3,4-oxadiazol-2-yl)pyridin-3-yl)isoindolin-1-one] | 500 |
| COc1cc(-c2cccc3c2C(=O)N([C@H](C2CC2)C(C)(C)O)C3)ccc1-c1nnc(C)o1 [Compound 67, (R)-2-(1-cyclopropyl-2-hydroxy-2-methylpropyl)-7-(3-methoxy-4-(5-methyl-1,3,4-oxadiazol-2-yl)phenyl)isoindolin-1-one] | 12 |

Stronger by EC50, values ahead:

| EC50 [nM] | Compound |
| --- | --- |
| 0.18 | Cc1nn(C)c2ccc(-c3c(F)ccc4c3C(=O)N([C@H](C3CC3)C(C)(C)O)C4)cc12 [Compound 55, (R)-2-(1-cyclopropyl-2-hydroxy-2-methylpropyl)-7-(1,3-dimethyl-1H-indazol-5-yl)-6-fluoroisoindolin-1-one] |
| 0.43 | Cc1nn(C)c2ccc(-c3ccc(F)c4c3C(=O)N([C@H](C3CC3)C(C)(C)O)C4)cc12 [Compound 56, (R)-2-(1-cyclopropyl-2-hydroxy-2-methylpropyl)-7-(1,3-dimethyl-1H-indazol-5-yl)-4-fluoroisoindolin-1-one] |
| 9.9 | Cc1nnc(-c2ccc(-c3c(F)cc(O)c4c3C(=O)N([C@H](C3CC3)C(C)(C)O)C4)cc2)o1 [Compound 59, (R)-2-(1-cyclopropyl-2-hydroxy-2-methylpropyl)-6-fluoro-4-hydroxy-7-(4-(5-methyl-1,3,4-oxadiazol-2-yl)phenyl) isoindolin-1-one] |
| 9.4 | Cn1cc(-c2ccc(-c3ccc(O)c4c3C(=O)N([C@H](C3CC3)C(C)(C)O)C4)cc2)cn1 [Compound 60, (R)-2-(1-cyclopropyl-2-hydroxy-2-methylpropyl)-4-hydroxy-7-(4-(1-methyl-1H-pyrazol-4-yl)phenyl) isoindolin-1-one] |
| 8.9 | Cc1cc2c(c(-c3ccc(-c4nnc(C)o4)cc3)c1)C(=O)N([C@H](C1CC1)C(C)(C)O)C2 [Compound 61, (R)-2-(1-Cyclopropyl-2-hydroxy-2-methylpropyl)-5-methyl-7-(4-(5-methyl-1,3,4-oxadiazol-2-yl)phenyl)isoindolin-1-one] |
| 3.5 | Cc1nnc(-c2ccc(-c3cccc4c3C(=O)N([C@H](C3CC3)C(C)(C)O)C4)c(F)c2)o1 [Compound 68, (R)-2-(1-cyclopropyl-2-hydroxy-2-methylpropyl)-7-(2-fluoro-4-(5-methyl-1,3,4-oxadiazol-2-yl)phenyl)isoindolin-1-one] |
